Reference: patent US10448639B2, “Fungicidal pyrazoles” (FMC CORPORATION, priority 2009, dated 2019)

What was measured:
[1] = test system: Alternaria solani; assay: Test C: tomato early blight, preventive spray on tomato seedlings, visual disease rating; details: tomato early blight; 100 = 100% disease control, 0 = no disease control relative to controls
[2] = test system: Septoria tritici; assay: Test G: wheat leaf blotch, preventive spray on wheat seedlings, visual disease rating; details: wheat leaf blotch, sprayed the day before inoculation; 100 = 100% disease control, 0 = no disease control relative to controls
[3] = test system: Puccinia recondita f. sp. tritici; assay: Test I: wheat leaf rust, preventive spray on wheat seedlings, visual disease rating; details: wheat leaf rust, sprayed the day before inoculation; 100 = 100% disease control, 0 = no disease control relative to controls
[4] = test system: Erysiphe graminis f sp. tritici; assay: Test J: wheat powdery mildew, preventive spray on wheat seedlings, visual disease rating; details: wheat powdery mildew, sprayed the day before inoculation; 100 = 100% disease control, 0 = no disease control relative to controls
[5] = test system: Septoria nodorum; assay: Test F: Septoria glume blotch, preventive spray on wheat seedlings, visual disease rating; details: Septoria glume blotch on wheat; 100 = 100% disease control, 0 = no disease control relative to controls
[6] = test system: Puccinia recondita f. sp. tritici; assay: Test H: wheat leaf rust, curative spray on inoculated wheat seedlings, visual disease rating; details: wheat leaf rust, sprayed after inoculation; 100 = 100% disease control, 0 = no disease control relative to controls
[7] = test system: Botrytis cinerea; assay: Test B: tomato Botrytis, preventive spray on tomato seedlings, visual disease rating; details: tomato Botrytis; 100 = 100% disease control, 0 = no disease control relative to controls
From the text: General protocol for preparing test suspensions for Tests A-J: the test compounds were first dissolved in acetone in an amount equal to 3% of the final volume and then suspended at the desired concentration (in ppm) in acetone and purified water (50/50 mix by volume) containing 250 ppm of the surfactant Trem® 014 (polyhydric alcohol esters). The resulting test suspensions were then used in Tests A-J. Spraying a 200 ppm test suspension to the point of run-off on the test plants was the equivalent of a rate of 500 g/ha. Unless otherwise indicated, the rating values indicate a 200 ppm test suspension was used. (An asterisk “*” next to the rating value indicates a 40 ppm test suspension was used.)
The test suspension was sprayed to the point of run-off on tomato seedlings. The following day the seedlings were inoculated with a spore suspension of Botrytis cinerea (the causal agent of tomato Botrytis) and incubated in saturated atmosphere at 20° C. for 48 h, and then moved to a growth chamber at 24° C. for 3 additional days, after which time visual disease ratings were made.

Row | SMILES | Test C disease control rating [1] [%] | Test G disease control rating [2] [%] | Test I disease control rating [3] [%] | Test J disease control rating [4] [%] | Test F disease control rating [5] [%] | Test H disease control rating [6] [%] | Test B disease control rating [7] [%]
1 | Cc1nn(C)c(Nc2ccc(F)cc2F)c1-c1ccccc1Cl [compound 315] | 99 | 100 | 96 | 100 | 0 | 0 | 99
2 | COc1ccc(-c2c(C)nn(C)c2Oc2ccc(C#N)cc2Cl)c(Br)c1 [compound 318] | 0 | 100 | 97 | 89 | 0 | 0 | 99
3 | COc1ccc(-c2c(C)nn(C)c2Oc2ccc(C#N)cc2F)c(Br)c1 [compound 319] | 88 | 100 | 99 | 95 | 100 | 0 | 92
4 | Cc1nn(C)c(Nc2ncc(Cl)cc2Cl)c1-c1ccccc1Cl [compound 320] | 67 | 100 | 99 | 98 | 0 | 0 | 99
5 | Cc1nn(C)c(Nc2ncc(Cl)cc2Cl)c1-c1c(F)cccc1F [compound 321] | 99 | 100 | 99 | 100 | 78 | 9 | 100
6 | COc1ccc(Nc2c(-c3ccc(F)cc3Cl)c(C)nn2C)c(Cl)c1 [compound 322] | 93 | 100 | 100 | 100 | 0 | 99 | 100
7 | COc1ccc(Nc2c(-c3ccc(F)cc3Br)c(C)nn2C)c(Cl)c1 [compound 324] | 83 | 100 | 99 | 99 | 0 | 63 | 99
8 | CCOc1ccc(Nc2c(-c3ccc(F)cc3Cl)c(C)nn2C)c(Cl)c1 [compound 325] | 0 | 100 | 97 | 99 | 0 | 0 | 100
9 | Cc1nn(C)c(Nc2ccc(Cl)cc2Cl)c1-c1c(Cl)cccc1Cl [compound 327] | 0 | 100 | 96 | 99 | 0 | 0 | 99
10 | Cc1nn(C)c(Nc2ncc(Cl)cc2Cl)c1-c1ccc(F)cc1F [compound 328] | 86 | 100 | 98 | 100 | 0 | 0 | 100
11 | Cc1nn(C)c(Oc2c(F)cc(C#N)cc2F)c1-c1cc(F)ccc1F [compound 329] | 99 | 100 | 100 | 100 | 69 | 0 | 100
12 | Cc1nn(C)c(Nc2ccc(F)cc2F)c1-c1ccc(C#N)cc1Cl [compound 331] | 80 | 100 | 100 | 97 | 73 | 8 | 100
13 | COc1ccc(Nc2c(-c3c(Cl)cccc3Cl)c(C)nn2C)cc1 [compound 333] | 0 | 100 | 74 | 0 | 0 | 9 | 100
14 | Cc1nn(C)c(Nc2ccc(F)cc2Cl)c1-c1c(Cl)cccc1Cl [compound 334] | 0 | 100 | 97 | 100 | 0 | 0 | 100
15 | Cc1nn(C)c(Nc2ccc(F)cc2)c1-c1c(Cl)cccc1Cl [compound 337] | 0 | 99 | 41 | 98 | 0 | 9 | 99
16 | Cc1nn(C)c(Nc2ccc(F)cc2Cl)c1-c1ccc(C#N)cc1Cl [compound 338] | 37 | 100 | 100 | 99 | 40 | 8 | 100
